Experimental data as given in paper PMC9635829 (Science Advances, 2022).

How the values were obtained:
OdinAK (AdkA1) [1] = target: T1, OdinAK (AdkA1) (Candidatus Odinarchaeum yellowstonii, UniProt A0AAF0D2B2); experiment: ITC; assay type: binding
T1 sequence (A0AAF0D2B2 1-198): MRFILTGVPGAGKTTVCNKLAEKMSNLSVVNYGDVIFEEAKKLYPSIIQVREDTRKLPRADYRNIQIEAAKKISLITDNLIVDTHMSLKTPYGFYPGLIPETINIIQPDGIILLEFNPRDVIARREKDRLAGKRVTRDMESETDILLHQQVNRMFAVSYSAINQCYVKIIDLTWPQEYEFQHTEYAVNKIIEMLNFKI

OdinAK (AdkA1) [2] = target: T1, OdinAK (AdkA1); experiment: […] real-time NMR; assay type: biochemical; conditions: 65 °C, 1 mM ATP (or other NTP), 300 μM AMP, 5 mM MgCl2, pH 7.0
OdinAK (AdkA1) [3] = target: T1, OdinAK (AdkA1); experiment: X-ray crystal structure; assay type: binding; conditions: ATP/AMP-mimicking inhibitor, spans both substrate sites
[4] = target: adenylate kinase from Odinarchaeota (OdinAK), wild type (Odinarchaeota); experiment: SEC-MALS

Compound | Kd (OdinAK (AdkA1) [1]) | also measured
Nc1ncnc2c1ncn2[C@@H]1O[C@H](COP(=O)(O)O)[C@@H](O)[C@H]1O [AMP] | – | 31P real-time NMR (OdinAK (AdkA1) [2]): OdinAK can use GTP and all other NTPs as substrate for phosphorylation of AMP
Nc1ncnc2c1ncn2[C@@H]1O[C@H](COP(=O)(O)OP(=O)(O)OP(=O)(O)OP(=O)(O)OP(=O)(O)OC[C@H]2O[C@@H](n3cnc4c(N)ncnc43)[C@H](O)[C@@H]2O)[C@@H](O)[C@H]1O [Ap5A, P^1,P^5-di(adenosine-5′) pentaphosphate] | – | X-ray crystal structure (OdinAK (AdkA1) [3]): we determined the crystal structure of the enzyme in complex with the tight binding
Nc1nc2c(ncn2[C@@H]2O[C@H](COP(=O)(O)OP(=O)(O)OP(=O)(O)O)[C@@H](O)[C@H]2O)c(=O)[nH]1 [GTP] | 7.2 ± 0.6 µM | –
O=c1ccn([C@@H]2O[C@H](COP(=O)(O)OP(=O)(O)OP(=O)(O)O)[C@@H](O)[C@H]2O)c(=O)[nH]1 [UTP] | 4.6 ± 0.5 µM | –
Cc1cn([C@H]2C[C@H](O)[C@@H](COP(=O)(O)OP(=O)(O)OP(=O)(O)O)O2)c(=O)[nH]c1=O [dTTP] | 24.2 ± 8 µM | –
adenylate kinase from Odinarchaeota (OdinAK), wild type (enzyme) | – | stoichiometry N [4]: 3

Second part, led by results:

Kd (OdinAK (AdkA1) [1]) | Compound | also measured
0.8 ± 0.1 µM | Nc1ncnc2c1ncn2[C@@H]1O[C@H](COP(=O)(O)OP(=O)(O)O)[C@@H](O)[C@H]1O [ADP] | –
0.3 ± 0.1 µM | Nc1ncnc2c1ncn2[C@@H]1O[C@H](COP(=O)(O)OP(=O)(O)OP(=O)(O)O)[C@@H](O)[C@H]1O [ATP] | –
28.7 ± 7 µM | Nc1ccn([C@@H]2O[C@H](COP(=O)(O)OP(=O)(O)OP(=O)(O)O)[C@@H](O)[C@H]2O)c(=O)n1 [CTP] | –
